{"source": "patent US11292773B2", "about": "“Small molecule inhibitors of BCL-2-associated death promoter (BAD) phosphorylation” (NATIONAL UNIVERSITY OF SINGAPORE, priority 2017, dated 2022)", "tested_on": "MCF7, BT474, Caov-3, Ishikawa, AsPC-1 and DLD-1 cells", "assay": "NPB exposure with or without siRNA-mediated depletion of BAD (western blot, ApoTox-Glo)", "type": "cell-based, human", "conditions": "5 μM NPB", "procedure": "(A) WB analysis was used to assess the levels of pBAD (Ser99) activity and BAD protein in MCF7, BT474, Caov-3, Ishikawa, AsPC-1, and DLD-1 cells after treatment with 5 μM NPB. Depletion of BAD expression was achieved using transient-transfection of small interfering (si)-RNA directed to the BAD transcript. Soluble whole cell extracts were run on an SDS-PAGE and immunoblotted as described in materials and methods. β-ACTIN was used as input control. Effects of NPB (5 μM) in MCF7, BT474, Caov-3, Ishikawa, AsPC-1, and DLD-1 cells. (B) Cell viability and (C) caspase 3/7 activities were evaluated using the ApoTox-GIo™ Triplex Assay Kit. All assays performed as described in methodology. Statistical significance was assessed by an unpaired two-tailed Student's t-test (P<0.05 was considered as significant) using GraphPad Prism5. The column represents mean of triplicate determinations; bars, ±SD. **P<0.001, *P<0.05. Note RFU, relative fluorescence unit; RLU, relative luminescence unit.\nTo confirm the functional specificity of NPB directed to the BAD protein, we further examined the effect of NPB exposure after siRNA-mediated depletion of BAD expression in 6 carcinoma cell lines (MCF7, BT474, Caov-3, Ishikawa, AsPC-1 and DLD-1). […] As described above, NPB treatment of the control transfected carcinoma cell lines decreased BAD phosphorylation (Ser99) compared to vehicle-treated cells. Concomitantly, exposure of the same carcinoma cell lines to NPB decreased cell viability and increased caspase 3/7 activity compared to vehicle-exposed cells.", "key": {"[1]": {"conditions": "control transfected carcinoma cell lines, vs vehicle"}}}
{"smiles": "O=C(NC1CCCC1)c1cccc(C(c2ccccc2O)N2CCN(c3cccc(Cl)c3Cl)CC2)c1", "note": "(stereo not shown) [NPB, N-cyclopentyl-3-((4-(2,3-dichlorophenyl)piperazin-1-yl)(2-hydroxyphenyl)methyl) benzamide]", "values": [{"measurement": "cell viability and caspase3/7 activity", "setting": "carcinoma cell lines with depleted expression of BAD", "value": "did not affect"}, {"measurement": "BAD phosphorylation (Ser99)", "setting": "[1]", "value": "decreased"}, {"measurement": "caspase 3/7 activity", "setting": "[1]", "value": "increased"}, {"measurement": "cell viability", "setting": "[1]", "value": "decreased"}]}
